Measurements taken from ChEMBL document CHEMBL5226364, “Microbial Dimerization and Chlorination of Isoflavones by a Takla Makan Desert-Derived Streptomyces sp. HDN154127” (2023).
≈ marks a conversion by molar mass, not a printed value. Where “and” joins values, the source holds several entries; their conditions need not be identical. Equal values may be shown once.

Columns and labels:
Format in all cases: functional
Proteus sp. = assay: Antibacterial activity against Proteus sp. assessed as inhibition of bacterial growth incubated for 24 hrs by microbroth dilution method
Staphylococcus aureus = assay: Antibacterial activity against methicillin-resistant Staphylococcus aureus assessed as inhibition of bacterial growth incubated for 24 hrs by microbroth dilution method
Bacillus cereus = assay: Antibacterial activity against Bacillus cereus assessed as inhibition of bacterial growth incubated for 24 hrs by microbroth dilution method
Bacillus subtilis = assay: Antibacterial activity against Bacillus subtilis assessed as inhibition of bacterial growth incubated for 24 hrs by microbroth dilution method
Vibrio parahaemolyticus = assay: Antibacterial activity against Vibrio parahaemolyticus assessed as inhibition of bacterial growth incubated for 24 hrs by microbroth dilution method
Candida albicans = assay: Antifungal activity against monilia albicans assessed as inhibition of fungal growth incubated for 24 hrs by microbroth dilution method
Mycolicibacterium phlei = assay: Antibacterial activity against Mycobacterium phlei assessed as inhibition of bacterial growth incubated for 24 hrs by microbroth dilution method
[1] = Proteus sp. (in: enterobacteria), read-out: MIC
[2] = Bacillus subtilis, read-out: MIC
[3] = Mycolicibacterium phlei, read-out: MIC

Row | Compound | MIC (Proteus sp.; [1]) [µM] | MIC (Staphylococcus aureus) [µM] | MIC (Bacillus cereus; Bacillus cereus, read-out: MIC) [µM] | MIC (Bacillus subtilis; [2]) [µM] | MIC (Vibrio parahaemolyticus) [µM] | MIC (Candida albicans) [µM] | MIC (Mycolicibacterium phlei; [3]) [µM] | MIC (Bacillus subtilis) | MIC (Proteus sp.) [µM] | MIC (Bacillus cereus) [µM] | MIC (Mycolicibacterium phlei)
1 | O=c1c(-c2ccc(O)cc2)coc2cc(O)cc(O)c12 [GENISTEIN] | > 50 | > 50 | > 50 | > 50 | > 50 | > 50 | > 50 |  |  |  | 
2 | COc1cc(-c2coc3cc(O)c(-c4cc(-c5coc6cc(O)ccc6c5=O)ccc4O)cc3c2=O)ccc1O | 12 (≈ 6.44 µg/mL) | > 50 | 12 (≈ 6.44 µg/mL) | 12 (≈ 6.44 µg/mL) | 50 (≈ 26.8 µg/mL) | > 50 | 12 (≈ 6.44 µg/mL) |  |  |  | 
3 | O=c1c(-c2ccc(O)c(-c3cc(-c4coc5c(Cl)c(O)cc(O)c5c4=O)ccc3O)c2)coc2cc(O)cc(O)c12 | > 50 | > 50 | > 50 | > 50 | 1.6 (≈ 0.917 µg/mL) | 1.6 (≈ 0.917 µg/mL) | > 50 |  |  |  | 
4 | O=C(O)c1cn(C2CC2)c2cc(N3CCNCC3)c(F)cc2c1=O [CIPROFLOXACIN] | 0.8 (≈ 0.265 µg/mL) | > 50 | < 0.4 | < 0.4 | < 0.4 |  | < 0.4 |  |  |  | 
5 | O=c1c(-c2ccc(Oc3c(O)cc(O)c4c(=O)c(-c5ccc(O)cc5)coc34)cc2)coc2c(Cl)c(O)ccc12 | > 50 | > 50 | > 50 | 0.4 (≈ 0.223 µg/mL) | > 50 | > 50 | > 50 |  |  |  | 
6 | O=c1c(-c2ccc(O)c(-c3c(O)ccc4c(=O)c(-c5ccc(O)cc5)coc34)c2)coc2cc(O)ccc12 | 50 (≈ 25.3 µg/mL) | > 50 | 3.1 (≈ 1.57 µg/mL) | 6.2 (≈ 3.14 µg/mL) | 12 (≈ 6.08 µg/mL) | > 50 | 6.2 (≈ 3.14 µg/mL) |  |  |  | 
7 | O=c1c(-c2ccc(Oc3c(O)cc(O)c4c(=O)c(-c5ccc(O)cc5)coc34)cc2)coc2c(Cl)c(O)cc(O)c12 | > 50 | > 50 | > 50 | 0.8 (≈ 0.458 µg/mL) | 3.1 (≈ 1.78 µg/mL) | 1.6 (≈ 0.917 µg/mL) | > 50 |  |  |  | 
8 | COc1c(O)ccc2c(=O)c(-c3ccc(O)c(-c4cc(-c5coc6cc(O)ccc6c5=O)ccc4O)c3)coc12 | > 50 | > 50 | 25 (≈ 13.4 µg/mL) | 25 (≈ 13.4 µg/mL) | > 50 | > 50 | 25 (≈ 13.4 µg/mL) |  |  |  | 
9 | NYSTATIN |  |  |  |  |  | 25 |  |  |  |  | 
10 | O=c1c(-c2ccc(O)cc2)coc2cc(O)ccc12 [DAIDZEIN] | > 50 | > 50 | > 50 | > 50 | > 50 | > 50 | > 50 |  |  |  | 
11 | O=c1c(-c2ccc(O)c(-c3c(O)cc(O)c4c(=O)c(-c5ccc(O)cc5)coc34)c2)coc2cc(O)cc(O)c12 | 0.8 (≈ 0.431 µg/mL) | 0.8 (≈ 0.431 µg/mL) | 3.1 (≈ 1.67 µg/mL) | 0.8 (≈ 0.431 µg/mL) | 0.8 (≈ 0.431 µg/mL) | > 50 | 0.8 (≈ 0.431 µg/mL) |  |  |  | 
12 | O=c1c(-c2ccc(O)c(Oc3ccc(-c4coc5c(Cl)c(O)cc(O)c5c4=O)cc3)c2)coc2cc(O)ccc12 | > 50 | > 50 | > 50 | 1.6 (≈ 0.891 µg/mL) | 3.1 (≈ 1.73 µg/mL) | 1.6 (≈ 0.891 µg/mL) | > 50 |  |  |  | 
13 | O=c1c(-c2ccc(O)c(-c3c(O)cc(O)c4c(=O)c(-c5ccc(O)cc5)coc34)c2)coc2cc(O)ccc12 | 12 (≈ 6.27 µg/mL) | > 50 |  | 6.2 (≈ 3.24 µg/mL) |  | > 50 |  | 12 µM (≈ 6.27 µg/mL) |  |  | 
14 | O=c1c(-c2ccc(O)c(Oc3ccc(-c4coc5c(Cl)c(O)ccc5c4=O)cc3)c2)coc2cc(O)ccc12 | > 50 | > 50 | > 50 | 0.8 (≈ 0.433 µg/mL) | 0.8 (≈ 0.433 µg/mL) | 1.6 (≈ 0.865 µg/mL) | > 50 |  |  |  | 
15 | O=c1c(-c2ccc(O)cc2)coc2c(-c3cc(-c4coc5cc(O)cc(O)c5c4=O)ccc3O)c(O)ccc12 | 50 (≈ 26.1 µg/mL) |  | 6.2 (≈ 3.24 µg/mL) |  | 50 (≈ 26.1 µg/mL) | > 50 |  | 25 µM and 12 µM | 25 (≈ 13.1 µg/mL) | 12 (≈ 6.27 µg/mL) | 12 µM and 25 µM
